Measurements published in US9700637B2, “Reaction-based fluorescent probes for detecting zinc” (Massachusetts Institute of Technology, priority 2013, dated 2017).

Columns and labels:
[1] = cited from earlier work
[2] = Zinc-induced fluorescence response in cuvette (turn-on, quantum yield); format: physicochemical; settings: for zinc-induced fluorescence response (turn-on): excess ZnCl2
Protocol: FIG. 2 depicts the normalized fluorescent spectra of DA-ZP1-TPP (also referred to as Ac2-ZP1-TPP) and ZP1-TPP in the absence (dashed line) and presence (solid line) of excess ZnCl2. Inset: The y-axis is magnified to aid in the visualization of the ˜7-fold “turn-on” of ZP1-TPP.
FIG. 20 depicts Zn(II)-dependent fluorescence signal enhancement of DA-ZP1-TPP. (a) Normalized fluorescence spectra of a 1 μM solution of DA-ZP1-TPP, in 50 mM PIPES buffer (pH 7) with 1 mM EDTA, 2 mM CaCl2, and 100 mM KCl, upon increasing concentrations of free zinc ions. (b) Zinc binding isotherm for the data in (a), normalized to the fluorescence signal under zinc saturating conditions (λex=495 nm).
Spectra were acquired in 50 mM PIPES (pH 7) with 100 mM KCl. For this titration, a single excitation wavelength of λex=485 nm was used.
The diacetylated version of ZP1-TPP, designated DA-ZP1-TPP, was readily prepared by reacting ZP1-TPP with acetic anhydride overnight at room temperature. Over the course of the reaction, the mixture turned from a dark, salmon-colored solution to a light, nearly colorless liquid, which was purified by HPLC. […] Addition of nanomolar concentrations of zinc ions results in a large increase in both the absorption λabs-Zn=510 nm) and fluorescence (λem-Zn=529 nm, FIG. 20a) spectral bands of DA-ZP1-TPP. These optical changes combine to yield a >140-fold increase in the fluorescence signal (ΦZn=0.75±0.03, FIG. 20). […] Whether the mode of zinc-mediated ester hydrolysis proceeds by internal or external hydroxide attack remains to be determined. […] Addition of a chelator (EDTA) attenuates the fluorescence signal ˜5-fold (Φ=0.15±0.02) in the cuvette (FIG. 22) with a concomitant redshift in the absorption spectrum (λabs=522 nm). Reversibility of the fluorescence signal is an important feature for zinc-responsive probes, because it allows confirmation that the observed increase in fluorescence signal is due to Zn(II) and not the result of an artifact. […]
Using DA-ZP1-A3 as a model system, we assessed its photophysical and zinc-binding properties (FIG. 26). […]

[3] = Charge of predominate species in solution at physiological pH; format: physicochemical; settings: physiological pH = 7.4
PC-3 cells = assay: Mitochondrial zinc uptake imaging in prostate cells; format: cell-based, human
Protocol: FIG. 25 depicts decreased mitochondrial zinc uptake in cancerous cell lines. RWPE-1, RWPE-2, and PC-3 prostate cell lines were incubated for 24 h in medium supplemented with (+) and without (−) 50 μM ZnCl2. RWPE-1 is the only cell line that has a statistically significant (p<0.001) increase in mitochondrial zinc uptake when incubated in zinc-enriched media.
With a new mitochondrial-targeting sensor in hand, we used DA-ZP1-TPP to investigate the ability of prostate cell lines to accumulate zinc within their mitochondria. RWPE-1 and RWPE-2 are a pair of genetically similar cell lines that retain normal epithelial cell morphology, express cytokeratin markers for prostate epithelial cells, and are hormone sensitive. […] To explore the ability of RWPE-1 and -2 cells to sequester zinc in mitochondria, we measured the fluorescence intensity of DA-ZP1-TPP in both lines after the cells were bathed in normal or zinc-enriched (50 μM ZnCl2) keratinocyte serum-free medium (KSFM) for 24 h prior to imaging. RWPE-1 cells bathed in zinc-enriched medium have a fluorescence signal intensity that is ˜2.3-fold higher than cells bathed in normal medium (FIG. 25). […] Importantly, in both cell lines the observed fluorescence signals from DA-ZP1-TPP are sensitive to ZnPT and TPEN and have good correlation with MitoTracker Red, the Pearson's r values being 0.68±0.09 and 0.59±0.1 for RWPE-1 and -2, respectively. […]

SMILES | pKa of tertiary nitrogen atoms on the DPA units [1] | zinc-induced fluorescence response (turn-on) [2] | Charge of the predominate species in solution [3] | attenuation of fluorescence signal by EDTA ([2]; chelator (EDTA) added after zinc) | increase in sensor fluorescence intensity, zinc-enriched medium (PC-3 cells; PC-3, 50 μM ZnCl2, RMPI 1640 with 10% FBS, 24 h) | increase in fluorescence intensity, zinc-supplemented serum-free medium (PC-3 cells; PC-3, serum-free RMPI 1640, 15 μM ZnCl2, 3 h)
O=C(NCC[P+](c1ccccc1)(c1ccccc1)c1ccccc1)c1ccc2c(c1)C1(OC2=O)c2cc(Cl)c(O)c(CN(Cc3ccccn3)Cc3ccccn3)c2Oc2c1cc(Cl)c(O)c2CN(Cc1ccccn1)Cc1ccccn1 [ZP1-TPP] | 6.96 | ~7 fold | Zwitterion | – | – | –
CC(=O)Oc1c(Cl)cc2c(c1CN(Cc1ccccn1)Cc1ccccn1)Oc1c(cc(Cl)c(OC(C)=O)c1CN(Cc1ccccn1)Cc1ccccn1)C21OC(=O)c2ccc(C(=O)NCC[P+](c3ccccc3)(c3ccccc3)c3ccccc3)cc21 [DA-ZP1-TPP] | – | > 140 fold | +1 | ~5 fold | no statistically significant increase | no statistically significant increase
